Values quoted from earlier work as cited in publication PMC11975010 (Drug Design, Development and Therapy, 2025).
Read-outs that look alike come from different tables or passages of the source. Blank lines part the entries; values can stand above or below the molecule they belong to.

Experiments:
[1] = poor solubility in water and high permeability
[2] = at 25 °C
[3] = not given; remark: listed apart in the source
[4] = administered as HP-β-CD complex formulation

Action duration: up to 12 hours | Biopharmaceutical Classification System class [1]: class II
SMILES: COc1ccc(CN=c2[nH]c(N3CCC[C@H]3CO)ncc2C(=O)NCc2ncccn2)cc1Cl [AVA, Avanafil]

Aqueous solubility [2]: approximately 600 mg/mL
SMILES: CC(O)COC[C@H]1O[C@@H]2O[C@H]3[C@H](O)[C@@H](O)[C@@H](O[C@H]4[C@H](O)[C@@H](O)[C@@H](O[C@H]5[C@H](O)[C@@H](O)[C@@H](O[C@H]6[C@H](O)[C@@H](O)[C@@H](O[C@H]7[C@H](O)[C@@H](O)[C@@H](O[C@H]8[C@H](O)[C@@H](O)[C@@H](O[C@H]1[C@H](O)[C@H]2O)O[C@@H]8COCC(C)O)O[C@@H]7COCC(C)O)O[C@@H]6COCC(C)O)O[C@@H]5COCC(C)O)O[C@@H]4COCC(C)O)O[C@@H]3COCC(C)O (stereo partly drawn) [HP-β-CD, hydroxypropyl-beta-cyclodextrin]

SMILES: CC[C@@]1(O)C(=O)OCc2c1cc1n(c2=O)Cc2cc3ccccc3nc2-1 [camptothecin]
Lactone ring hydrolysis ([3]; before stabilization in HP-β-CD): 40% | Lactone ring hydrolysis ([3]; stabilized in HP-β-CD cavities): 6.7%

Clearance [4]: lower clearance
SMILES: C[C@@H]1C[C@H]2[C@@H]3CCC4=CC(=O)C=C[C@]4(C)[C@@]3(F)[C@@H](O)C[C@]2(C)[C@@]1(O)C(=O)CO [dexamethasone]
